Article PMC9850473, “Three-Component Reaction of 3-Formyl-6-Methylchromone, Primary Amines, and Secondary Phosphine Oxides: A Synthetic and Mechanistic Study” (ACS Omega, 2022)

Experiments:
[1] = In vitro cytotoxicity, fluorescent Resazurin assay, HL60; conditions: human, HL60 (HL-60) promyelocytic leukemia cells, In vitro cytotoxicity [IC50, μM] HL60, HL60 cells, 72 h incubation, 1–30 μM, mean ± standard deviation
Source text: (§1) The in vitro cytotoxicity of the several synthesized compounds was also investigated. […] During the measurements, the fluorescent Resazurin assay as described previously was applied.[19]
(§2) Cells were purchased from the American Type Culture Collection (ATCC, Manassas, Virginia, USA). Human lung adenocarcinoma A549 cells were maintained in Dulbecco’s modified Eagle’s medium (DMEM), while mouse fibroblast NIH/3T3 and human promyelocytic leukemia HL-60 cells were maintained in Roswell Park Memorial Institute 1640 medium (RPMI-1640) containing 10% FCS. Media were supplemented with 2 mM GlutaMAX, 100 U/mL penicillin, and 100 μg/mL streptomycin (Life Technologies, Carlsbad, California, USA). Cell cultures were maintained at 37 °C in a humidified incubator in an atmosphere of 5% CO2 (Sanyo, Japan).
(§3) Cytotoxicity of the synthesized molecules was determined on A549, NIH/3T3, and HL-60 cells using the fluorescent Resazurin assay as described previously.[19]
(§4) Briefly, cells (A549 and NIH/3T3: 6000, HL-60: 120.000 cells/well) were seeded into 96-well plates (Corning Life Sciences) in media and incubated overnight. Test compounds were dissolved in 3-fold amounts of dimethyl sulfoxide (DMSO). Cells were treated with an increasing concentration of test compounds (1–30 μM). […] Cell viability was determined after 72 h incubation. Resazurin reagent (Sigma-Aldrich) was added at a final concentration of 25 μg/mL. After a 2 h incubation for at 37 °C, 5% CO2, fluorescence (530 nm excitation/580 nm emission) was recorded on a multimode microplate reader (Cytofluor4000, PerSeptive Biosytems). Viability was calculated with relation to untreated control cells and blank wells containing media without cells.

[2] = In vitro cytotoxicity, fluorescent Resazurin assay, A549; assay type: cell-based; conditions: human, A549 lung adenocarcinoma cells, 72 h incubation, 1–30 μM, mean ± standard deviation
[3] = In vitro cytotoxicity, fluorescent Resazurin assay, NIH/3T3; conditions: mouse, NIH/3T3 fibroblast cells
Source text: as §1, §2, §3, §4

[4] = system: human promyelocytic leukemia (HL60) cell line; test: In vitro cytotoxicity, fluorescent Resazurin assay, HL60; conditions: read-out: In vitro cytotoxicity [IC50, μM] HL60, HL60 cells, 72 h incubation, 1–30 μM, mean ± standard deviation
Source text: as §1, §2, §3, §4

SMILES | melting point [°C] | IC50 at 72 h [1] [µM] | IC50 at 72 h [2] [µM] | IC50 at 72 h [3] [µM] | IC50 [4] [µM]
Cc1ccc(P(=O)(c2ccc(C)cc2)C2Oc3ccc(C)cc3C(=O)/C2=C/NC2CCCCC2)cc1 (stereo not shown) [7b, (Z)-3-[(Cyclohexylamino)methylene]-2-(di-p-tolylphosphoryl)-6-methylchroman-4-one] | 205 to 206 |  |  |  | 
Cc1ccc2occ(C(Nc3ccccc3)P(=O)(c3ccc4ccccc4c3)c3ccc4ccccc4c3)c(=O)c2c1 (stereo not shown) [compound 6, 3-{(Phenylamino)[di(naphthalen-2-yl)phosphoryl]methyl}-6-methyl-4H-chromen-4-one] | 223 to 224 |  |  |  | 
Cc1ccc2c(c1)C(=O)/C(=C/NCCO)C(P(=O)(c1ccccc1)c1ccccc1)O2 (stereo not shown) [2g, (Z)-3-[(Ethanolamino)methylene]-2-(diphenylphosphoryl)-6-methylchroman-4-one] | 181 to 182 | > 30 | > 30 | 20.7 ± 1.02 | 
CCCCN/C=C1/C(=O)c2cc(C)ccc2OC1P(=O)(c1cc(C)cc(C)c1)c1cc(C)cc(C)c1 (stereo not shown) [8a, (Z)-2-[Bis(3,5-dimethylphenyl)phosphoryl]-3-[(butylamino)methylene]-6-methyl-chroman-4-one] | 145 to 146 | ~15 | > 30 | > 30 | 14.8 ± 1.13
Cc1ccc2occ(C(Nc3ccc(Cl)cc3)P(=O)(c3ccccc3)c3ccccc3)c(=O)c2c1 (stereo not shown) [1d, 3-[(4-Chlorophenylamino)(diphenylphosphoryl)methyl]-6-methyl-4H-chromen-4-one] | 235 to 236 |  |  |  | 
CCCCN/C=C1/C(=O)c2cc(C)ccc2OC1P(=O)(c1ccc2ccccc2c1)c1ccc2ccccc2c1 (stereo not shown) [9a, (Z)-3-[(Butylamino)methylene]-2-[di(naphthalen-2-yl)phosphoryl]-6-methylchroman-4-one] | 192 to 193 |  |  |  | 
Cc1ccc2c(c1)C(=O)/C(=C/NC1CCCCC1)C(P(=O)(c1ccccc1)c1ccccc1)O2 (stereo not shown) [2c, (Z)-3-[(Cyclohexylamino)methylene]-2-(diphenylphosphoryl)-6-methylchroman-4-one] | 198 to 199 |  |  |  | 
CCCCNC(c1coc2ccc(C)cc2c1=O)P(=O)(c1ccccc1)c1ccccc1 (stereo not shown) [1a, 3-[(Butylamino)(diphenylphosphoryl)methyl]-6-methyl-4H-chromen-4-one] | 187 to 188 |  |  |  | 
Cc1ccc2c(c1)C(=O)/C(=C/NC(c1ccccc1)c1ccccc1)C(P(=O)(c1ccccc1)c1ccccc1)O2 (stereo not shown) [2e, (Z)-3-[(Benzhydrylamino)methylene]-2-(diphenylphosphoryl)-6-methylchroman-4-one] | 182 to 183 | 9.91 ± 1.28 | > 30 | > 30 | 
Cc1ccc2c(c1)C(=O)/C(=C/NCc1ccccc1)C(P(=O)(c1ccccc1)c1ccccc1)O2 (stereo not shown) [2d, (Z)-3-[(Benzylamino)methylene]-2-(diphenylphosphoryl)-6-methylchroman-4-one] | 196 to 197 |  |  |  | 
Cc1ccc(P(=O)(c2ccc(C)cc2)C(Nc2ccccc2)c2coc3ccc(C)cc3c2=O)cc1 (stereo not shown) [compound 4, 3-[(Phenylamino)(di-p-tolylphosphoryl)methyl]-6-methyl-4H-chromen-4-one] | 245 to 246 |  |  |  | 
Cc1ccc2occ(C(Nc3ccccc3)P(=O)(c3ccccc3)c3ccccc3)c(=O)c2c1 (stereo not shown) [1b, 3-[(Phenylamino)(diphenylphosphoryl)methyl]-6-methyl-4H-chromen-4-one] | 239 to 240 |  |  |  | 
CCCCN/C=C1/C(=O)c2cc(C)ccc2OC1P(=O)(c1ccccc1)c1ccccc1 (stereo not shown) [2a, (Z)-3-[(Butylamino)methylene]-2-(diphenylphosphoryl)-6-methylchroman-4-one] | 192 to 193 |  |  |  | 
CCCCN/C=C1/C(=O)c2cc(C)ccc2OC1P(=O)(c1ccc(C)cc1)c1ccc(C)cc1 (stereo not shown) [7a, (Z)-3-[(Butylamino)methylene]-2-(di-p-tolylphosphoryl)-6-methylchroman-4-one] | 186 to 187 |  |  |  | 
Cc1ccc2occ(C(O)P(=O)(c3ccccc3)c3ccccc3)c(=O)c2c1 (stereo not shown) [compound 3, 3-[(Diphenylphosphoryl)(hydroxy)methyl]-6-methyl-4H-chromen-4-one] | 190 to 192 |  |  |  | 
Cc1ccc(P(=O)(c2ccc(C)cc2)C2Oc3ccc(C)cc3C(=O)/C2=C/NCc2ccccc2)cc1 (stereo not shown) [7c, (Z)-3-[(Benzylamino)methylene]-2-(di-p-tolylphosphoryl)-6-methylchroman-4-one] | 198 to 199 |  |  |  | 
Cc1cc(C)cc(P(=O)(c2cc(C)cc(C)c2)C(Nc2ccccc2)c2coc3ccc(C)cc3c2=O)c1 (stereo not shown) [compound 5, 3-{(Phenylamino)[bis(3,5-dimethylphenyl)phosphoryl]methyl}-6-methyl-4H-chromen-4-one] | 229 to 230 |  |  |  | 
Cc1ccc2c(c1)C(=O)/C(=C/NCCCO)C(P(=O)(c1ccccc1)c1ccccc1)O2 (stereo not shown) [2f, (Z)-3-[(Propanolamino)methylene]-2-(diphenylphosphoryl)-6-methylchroman-4-one] | 176 to 177 | 27.4 ± 1.13 | > 30 | > 30 | 
CC(C)C[C@H](NC(=O)[C@H](Cc1ccccc1)NC(=O)c1cnccn1)B(O)O [bortezomib, reference compound] |  | 0.00742 |  |  | 
Cc1ccc2c(c1)C(=O)/C(=C/Nc1ccccc1)C(P(=O)(c1ccccc1)c1ccccc1)O2 (stereo not shown) [2b, (Z)-3-[(Phenylamino)methylene]-2-(diphenylphosphoryl)-6-methylchroman-4-one] | 243 to 244 |  |  |  | 
Cc1cc(C)cc(P(=O)(c2cc(C)cc(C)c2)C2Oc3ccc(C)cc3C(=O)/C2=C/NCc2ccccc2)c1 (stereo not shown) [8d, (Z)-3-[(benzylamino)methylene]-2-[bis(3,5-dimethylphenyl)phosphoryl]-6-methylchroman-4-one] |  | ~15 | 18.5 ± 1.08 | 14.2 ± 1.12 | 13.2 ± 1.32
COc1ccc(NC(c2coc3ccc(C)cc3c2=O)P(=O)(c2ccccc2)c2ccccc2)cc1 (stereo not shown) [1c, 3-[(4-Methoxyphenylamino)(diphenylphosphoryl)methyl]-6-methyl-4H-chromen-4-one] | 224 to 225 |  |  |  | 
Cc1cc(C)cc(P(=O)(c2cc(C)cc(C)c2)C2Oc3ccc(C)cc3C(=O)/C2=C/NC2CCCCC2)c1 (stereo not shown) [8c, (Z)-2-[Bis(3,5-dimethylphenyl)phosphoryl]-3-[(cyclohexylamino)methylene]-6-methylchroman-4-one] | 155 to 156 | ~15 | > 30 | > 30 | 
Cc1ccc2c(c1)C(=O)/C(=C/NC1CCCCC1)C(P(=O)(c1ccc3ccccc3c1)c1ccc3ccccc3c1)O2 (stereo not shown) [9b, (Z)-3-[(Cyclohexylamino)methylene]-2-[di(naphthalen-2-yl)phosphoryl]-6-methylchroman-4-one] | 171 to 172 |  |  |  | 
